What was measured:
[1] = Volume of distribution at steady state in human after iv administration; conditions: in vivo
[2] = Clearance in monkey after iv administration; conditions: macaca, in vivo
[3] = Clearance in rat after iv administration; conditions: in vivo
[4] = Volume of distribution at steady state in rat after iv administration; conditions: in vivo
[5] = Clearance in human after iv administration; conditions: in vivo
[6] = Volume of distribution at steady state in dog after iv administration; conditions: in vivo
[7] = Volume of distribution at steady state in monkey after iv administration; conditions: macaca, in vivo
[8] = Clearance in dog after iv administration; conditions: in vivo

SMILES	Vd [1] [L/kg]	clearance [2] [L/h/kg]	clearance [3] [L/h/kg]	Vdss [4] [L/kg]	clearance [5] [L/h/kg]	Vd [6] [L/kg]	Vd [7] [L/kg]	clearance [8] [L/h/kg]
CN(C)CCCN1c2ccccc2Sc2ccc(Cl)cc21 [CHLORPROMAZINE]	11.2	1.48	3.66	29.1	0.258	16.3	8	3.18
COc1ccc([C@H](CC(=O)O)N2CCN(CCCc3ccc4c(n3)NCCC4)C2=O)cn1	0.2	0.54	–	1.5	0.06	0.9	0.3	0.324
COC(=O)C1=C(C)NC(C)=C(C(=O)OC)C1c1ccccc1[N+](=O)[O-] [NIFEDIPINE]	–	–	–	0.13	–	1.15	0.5	–
CC1COc2c(N3CCN(C)CC3)c(F)cc3c(=O)c(C(=O)O)cn1c23 (stereo not given) [OFLOXACIN]	1.78	0.45	1.58	1.66	0.272	1.15	1.6	0.159
CCOc1cc(Cc2cnc(N)nc2N)cc(OCC)c1-n1cccc1 [EPIROPRIM]	2.5	1.84	2.7	4.6	0.21	8.3	5.1	0.642
CC#C[C@]1(O)CC[C@H]2[C@@H]3CCC4=CC(=O)CCC4=C3[C@@H](c3ccc(N(C)C)cc3)C[C@@]21C [MIFEPRISTONE]	0.3	1.45	3	4.3	0.0198	10.5	32.5	0.936
COc1ccc([C@@H]2Sc3ccccc3N(CCN(C)C)C(=O)[C@@H]2OC(C)=O)cc1 [DILTIAZEM]	–	2.07	4.94	3.6	0.72	21.4	3.5	3.54
O=C(CCCN1CCC(O)(c2ccc(Cl)cc2)CC1)c1ccc(F)cc1 [HALOPERIDOL]	–	–	–	10.4	–	37	6.6	–
C[C@H]1NCc2cc(-c3ccc4c(=O)c(C(=O)O)cn(C5CC5)c4c3OC(F)F)ccc21 [GARENOXACIN]	1	0.204	0.726	0.9	0.072	1.3	1	0.144
CCCN1CCC[C@@H](c2cccc(S(C)(=O)=O)c2)C1	2.2	2	2.8	1.5	0.432	2.5	1.4	2.2
OC(CCN1CCCCC1)(c1ccccc1)C1CC2C=CC1C2 (stereo not given) [BIPERIDEN]	6.2	1.31	–	14	0.918	9.5	3.6	1.62
Cc1ncc2n1-c1ccc(Cl)cc1C(c1ccccc1F)=NC2 [MIDAZOLAM]	1.1	1.45	4.02	1.6	0.396	3	1.5	1.62
COc1ccc(Cl)cc1[C@]1(F)C(=O)Nc2cc(C(F)(F)F)ccc21 [FLINDOKALNER]	2.35	2.41	1.79	3.4	0.458	3.2	5.4	0.186
CCC1=C[C@@H]2CN(C1)Cc1c([nH]c3ccccc13)[C@@](C(=O)OC)(c1cc3c(cc1OC)N(C)[C@H]1[C@@](O)(C(=O)OC)[C@H](OC(C)=O)[C@]4(CC)C=CCN5CC[C@]31[C@@H]54)C2 [VINORELBINE]	75.6	1.42	1.9	24.4	1.26	49.6	11.4	1.2
CCN1CCC[C@H]1CNC(=O)c1c(OC)ccc(Br)c1OC [REMOXIPRIDE]	0.7	0.708	10.2	4.5	0.102	1.6	1.1	0.294
Cc1cc(C)c(/C=C2\C(=O)Nc3ccccc32)[nH]1 [SEMAXANIB]	0.98	1.54	2.7	1.6	0.84	1.4	1.45	3.12
